Literature values, collected in patent publication US20220082565A1, “THE FGF19-CHOLESTYRAMINE (F-CME) TEST AS A TWO-STAGE METHOD FOR ROUTINE CANCER SCREENING” (UNIVERSITY OF CENTRAL FLORIDA RESEARCH FOUNDATION, INC., priority 2020, published 2022).

System: FGF19 transcripts
Conditions: physiological concentrations of bile acids, explants of ileal mucosa

C[C@H](CCC(=O)O)[C@H]1CC[C@H]2[C@@H]3[C@H](O)C[C@@H]4C[C@H](O)CC[C@]4(C)[C@H]3CC[C@]12C [chenodeoxycholic acid]
stimulation of human FGF19 transcripts: approximately 300 fold

CC(CCC(=O)NCC(=O)O)C1CCC2C3C(O)CC4CC(O)CCC4(C)C3CCC12C (centres unmarked) [glycochenodeoxycholic acid]
stimulation of human FGF19 transcripts: approximately 300 fold
